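All cell lines were grown in 96-well plates and treated with compound for 48 hours. GI50 = concentration required for 50% inhibition of growth.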 Active and inactive are the calls of the source. Cut-off read from the data, not from the text of the source: active = GI50 up to about 1.1 µM and inactive = higher.
Assays:
Assay in all cases: DTP human tumour cell line panel, 48 h
[1] = system: DLD-1
[2] = system: LXFL 529
[3] = system: RXF 631
[4] = system: DMS-273
[5] = system: XF498
[6] = system: SNB-78
[7] = system: MDA-N
[8] = system: BT-549

| Structure (SMILES) | GI50 [1] | GI50 [2] | GI50 [3] | GI50 [4] | GI50 [5] | GI50 [6] | GI50 [7] | GI50 [8] |
| --- | --- | --- | --- | --- | --- | --- | --- | --- |
| CC1=C(C(=O)Nc2ccccc2)C(c2ccccc2Cl)C(C(=O)Nc2ccccc2)=C(C)N1 | 35.9 µM (inactive) | 17.6 µM (inactive) | 36.1 µM (inactive) | 20.8 µM (inactive) | – | – | – | – |
| N#CNCC(COCc1ccccc1)c1ccccc1 (stereo not drawn) | – | – | > 100 µM (inactive) | 94.4 µM (inactive) | 47.6 µM (inactive) | – | – | – |
| CCOC(=O)C(Sc1ccccc1)c1c(OC)cc(=O)oc1/C=[N+](/[O-])c1ccc(N(C)C)cc1 (stereo not drawn) | 28.1 µM (inactive) | 14.1 µM (inactive) | – | 14 µM (inactive) | 14.6 µM (inactive) | 27.1 µM (inactive) | – | – |
| C=C1CCC2C(C)(CO)C(O)CCC2(C)C1CC(O)/C(=C/CO)C(=O)O (stereo not drawn) | > 100 µM (inactive) | > 100 µM (inactive) | > 100 µM (inactive) | > 100 µM (inactive) | – | > 100 µM (inactive) | – | – |
| Cc1nc2c(=O)n(C)c(=O)nc-2n(-c2ccc(Cl)cc2)c1C | 85.9 µM (inactive) | 62.7 µM (inactive) | > 100 µM (inactive) | > 100 µM (inactive) | > 100 µM (inactive) | > 100 µM (inactive) | – | – |
| CCOc1ccccc1NC(=O)CC1Sc2ccccc2NC1=O (stereo not drawn) | 75.7 µM (inactive) | 59.2 µM (inactive) | 58.5 µM (inactive) | 48.6 µM (inactive) | 80.4 µM (inactive) | > 100 µM (inactive) | – | – |
| CC1=NN2C(c3ccc([N+](=O)[O-])cc3)=CSC2=NC(C)(C)C1 | > 100 µM (inactive) | > 100 µM (inactive) | > 100 µM (inactive) | > 100 µM (inactive) | > 100 µM (inactive) | > 100 µM (inactive) | – | – |
| CN1C(c2ccccc2)CC(=Nc2ccccc2)CC1c1ccccc1 (stereo not drawn) | 10.6 µM (inactive) | 4.46 µM (inactive) | 20.5 µM (inactive) | 8.79 µM (inactive) | – | 15 µM (inactive) | – | – |
| CCC1=C(C)/C(=C/c2[nH]c(CBr)c(CC)c2C)N=C1CBr | 12.4 µM (inactive) | 4.43 µM (inactive) | > 100 µM (inactive) | > 100 µM (inactive) | – | – | – | – |
| CC(C)Cc1ccc(C(C)/C=C2\CCC(CN3CCOCC3)C2=O)cc1 (stereo not drawn) | 2.71 µM (inactive) | 1.64 µM (inactive) | 18.1 µM (inactive) | – | 16.4 µM (inactive) | 20.9 µM (inactive) | 12.1 µM (inactive) | 17.9 µM (inactive) |
| Cc1cc(Cl)ccc1NC(=O)CC1SC(Nc2ccccc2Cl)=NC1=O (stereo not drawn) | 28.1 µM (inactive) | 34.9 µM (inactive) | 45.6 µM (inactive) | 26.4 µM (inactive) | 62.1 µM (inactive) | 49.5 µM (inactive) | – | – |
| CCOc1ccc(OCC)c([P+](c2ccccc2)(c2ccccc2)c2ccccc2)c1 | 0.548 µM (active) | 0.198 µM (active) | 2.4 µM (inactive) | 0.236 µM (active) | 0.0841 µM (active) | 0.895 µM (active) | – | – |
| O=C(Nc1ccccc1-c1nn(CN2CCNCC2)c(=S)n(CN2CCNCC2)c1=O)C(F)(F)F | 16.5 µM (inactive) | – | 20.7 µM (inactive) | 18.1 µM (inactive) | – | 23 µM (inactive) | – | – |
| CN(C)CC1CCC/C1=N/OC(=O)c1ccccc1 (stereo not drawn) | > 100 µM (inactive) | > 100 µM (inactive) | > 100 µM (inactive) | > 100 µM (inactive) | – | > 100 µM (inactive) | – | – |
| O=C(CCN(C(=O)O)S(=O)(=O)c1ccc(NC(=O)c2ccccc2)cc1)Nc1ccccc1 | > 79.8 µM (inactive) | > 100 µM (inactive) | > 100 µM (inactive) | > 65.3 µM (inactive) | > 100 µM (inactive) | > 100 µM (inactive) | – | – |
| CN(/N=N/c1[nH]cnc1C(N)=O)C1CCCCC1 | > 100 µM (inactive) | > 100 µM (inactive) | – | 41.2 µM (inactive) | 75.7 µM (inactive) | > 100 µM (inactive) | – | – |
| O=C(CC1(O)C(=O)Nc2c(Cl)cccc21)c1ccccc1 (stereo not drawn) | > 100 µM (inactive) | > 100 µM (inactive) | – | > 100 µM (inactive) | > 100 µM (inactive) | > 100 µM (inactive) | – | – |
